# From patent US20250230193A1, “CYCLIC COMPOUND HAVING SELECTIVE KRAS INHIBITORY EFFECT ON HRAS AND NRAS” (CHUGAI SEIYAKU KABUSHIKI KAISHA, priority 2022, published 2025)
# Where a SMILES comes first, the peptide text is derived from it. Bridges are numbered along the chain shown (N, C = ends). [ ]: non-standard residue; d: D form. The star is where a group is joined. hPhe(3-Cl-4-CF3) = N[C@@H](CCc1ccc(C(F)(F)F)c(Cl)c1)C(=O)O; NPrPhe(4-CF3) = CCCN[C@@H](Cc1ccc(C(F)(F)F)cc1)C(=O)O; NMePhe(4-F) = CN[C@@H](Cc1ccc(F)cc1)C(=O)O; NMeGly(cPent) = CN[C@H](C(=O)O)C1CCCC1; NMeD = CN[C@@H](CC(=O)O)C(=O)O; Ac4c(3-oxa) = NC1(C(=O)O)COC1; NMeL = CN[C@@H](CC(C)C)C(=O)O; Morpholide = C1CN(*)CCO1; Ac5c = NC1(C(=O)O)CCCC1; Sar = CNCC(=O)O
# Legend:
# [1] = molecular target: GDP-bound HRAS wild-type protein (Homo sapiens, UniProt P01112); experiment: Binding to HRAS by surface plasmon resonance (SPR), Single Cycle Kinetics; conditions: SPR; for HRAS/KRAS (ratio of KD value for HRAS to KD value for KRAS) / HRAS/KRAS (ratio of KD value with respect to HRAS to KD value with respect to KRAS): GDP-bound HRAS wild-type vs GDP-bound KRAS wild-type
# [2] = molecular target: GDP-bound NRAS wild-type protein (Homo sapiens, UniProt P01111); experiment: Binding to NRAS by surface plasmon resonance (SPR), Single Cycle Kinetics; conditions: SPR; for NRAS/KRAS (ratio of KD value for NRAS to KD value for KRAS) / NRAS/KRAS (ratio of KD value with respect to NRAS to KD value with respect to KRAS): GDP-bound NRAS wild-type vs GDP-bound KRAS wild-type
# Sequence of GDP-bound NRAS wild-type protein (P01111 whole entry): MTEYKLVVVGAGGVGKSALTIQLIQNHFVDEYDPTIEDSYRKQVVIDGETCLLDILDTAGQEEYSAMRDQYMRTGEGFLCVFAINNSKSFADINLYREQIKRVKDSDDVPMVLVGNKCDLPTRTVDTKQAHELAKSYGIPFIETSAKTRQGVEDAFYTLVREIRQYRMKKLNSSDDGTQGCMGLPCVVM
# Sequence of GDP-bound HRAS wild-type protein (P01112 whole entry): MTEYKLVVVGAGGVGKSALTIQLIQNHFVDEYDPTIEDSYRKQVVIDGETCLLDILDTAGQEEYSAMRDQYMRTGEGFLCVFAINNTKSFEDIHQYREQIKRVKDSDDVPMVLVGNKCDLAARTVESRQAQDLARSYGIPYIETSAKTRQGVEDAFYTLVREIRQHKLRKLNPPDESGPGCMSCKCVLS
structure (smiles),measurement,setting,value
CC[C@H](C)[C@@H]1NC(=O)[C@H](CC(C)C)N(C)C(=O)C[C@@H](C(=O)N2CCOCC2)N(C)C(=O)[C@H](C2CCCC2)N(C)C(=O)C2(CCCC2)NC(=O)[C@@H]2CCCN2C(=O)[C@H](CCc2ccc(C(F)(F)F)c(Cl)c2)NC(=O)CN(C)C(=O)[C@H](Cc2ccc(F)cc2)N(C)C(=O)CN(C)C(=O)CN(C)C1=O [PP0212] ([NMeL]I[Sar][Sar][NMePhe(4-F)][Sar][hPhe(3-Cl-4-CF3)]P[Ac5c][NMeGly(cPent)][NMeD]-Morpholide; lactam N-11),HRAS/KRAS (ratio of KD for GDP-bound HRAS wild-type to KD for KRAS),[1]; KD ratio HRAS/KRAS,C (A compound having a KD ratio of 0.1 or more and less than 3 is denoted as C)
same,NRAS/KRAS (ratio of KD for GDP-bound NRAS wild-type to KD for KRAS),[2]; KD ratio NRAS/KRAS,C (A compound having a KD ratio of 0.1 or more and less than 3 is denoted as C)
CCCN1C(=O)CN(C)C(=O)CN(C)C(=O)[C@H]([C@@H](C)CC)NC(=O)[C@H](CC(C)C)N(C)C(=O)C[C@@H](C(=O)N2CCOCC2)N(C)C(=O)[C@H](C2CCCC2)N(C)C(=O)C2(COC2)NC(=O)[C@@H]2CCCN2C(=O)[C@H](CCc2ccc(C(F)(F)F)c(Cl)c2)NC(=O)CN(C)C(=O)[C@@H]1Cc1ccc(C(F)(F)F)cc1 [PP1922] ([NMeL]I[Sar][Sar][NPrPhe(4-CF3)][Sar][hPhe(3-Cl-4-CF3)]P[Ac4c(3-oxa)][NMeGly(cPent)][NMeD]-Morpholide; lactam N-11),HRAS/KRAS (ratio of KD value for HRAS to KD value for KRAS),[1]; KD ratio,C (A compound having a KD ratio of 0.1 or more and less than 3 is denoted as C)
same,NRAS/KRAS (ratio of KD value for NRAS to KD value for KRAS),[2]; KD ratio,B (a compound having 3 or more and less than 10 is denoted as B)
CCCOC[C@H]1C(=O)N[C@@H]([C@@H](C)CC)C(=O)N(C)CC(=O)N(C)[C@H]2C/C=C\CCN(C2=O)[C@@H](Cc2ccc(C)cc2)C(=O)N(C)CC(=O)N[C@@H](CCc2ccc(C(F)(F)F)c(Cl)c2)C(=O)N2C[C@H](OCC)C[C@H]2C(=O)NC2(CC(C)(C)C2)C(=O)N(C)[C@@H](C2CCCC2)C(=O)N(C)[C@H](C(=O)N(C)CC)CC(=O)N1C [PP2469],HRAS/KRAS (ratio of KD value with respect to HRAS to KD value with respect to KRAS),[1],B (a compound having 3 or more and less than 10 is denoted as B)
same,NRAS/KRAS (ratio of KD value with respect to NRAS to KD value with respect to KRAS),[2],A (a compound having 10 or more and less than 20 is denoted as A)
CC[C@H](C)[C@@H]1NC(=O)[C@H](CC)N(C)C(=O)C[C@@H](C(=O)N(C)C)N(C)C(=O)[C@H](C2CCCC2)N(C)C(=O)C2(CCC2)NC(=O)[C@@H]2C[C@H](N3CCC(F)(F)CC3)CN2C(=O)[C@H](CCc2cc(F)c(C(F)(F)F)c(F)c2)NC(=O)CN(C)C(=O)[C@H](Cc2ccc(C(F)(F)F)cc2)N2CCCCC[C@@H](C2=O)N(C)C(=O)CN(C)C1=O [PP0731],HRAS/KRAS (ratio of KD value with respect to GDP-bound HRAS wild-type protein to KD value with respect to KRAS),[1]; KD ratio HRAS/KRAS,B (a compound having 3 or more and less than 10 is denoted as B)
same,NRAS/KRAS (ratio of KD value with respect to GDP-bound NRAS wild-type protein to KD value with respect to KRAS),[2]; KD ratio NRAS/KRAS,B (a compound having 3 or more and less than 10 is denoted as B)
CCO[C@@H]1C[C@H]2C(=O)NC3(CCC3)C(=O)N(C)[C@@H](C3CCCC3)C(=O)N(C)[C@H](C(=O)N3CCOCC3)CC(=O)N(C)[C@@H](Cc3cccc(C)c3)C(=O)N[C@@H]([C@@H](C)CC)C(=O)N(C)CC(=O)N(C)[C@H]3CCCCCN(C3=O)[C@@H](Cc3ccc(C(F)(F)F)cc3)C(=O)N(C)CC(=O)N[C@@H](CCc3cc(F)c(C(F)(F)F)c(F)c3)C(=O)N2C1 [PP0932],HRAS/KRAS (ratio of KD value with respect to HRAS to KD value with respect to KRAS),[1]; KD ratio,B (a compound having 3 or more and less than 10 is denoted as B)
same,NRAS/KRAS (ratio of KD value with respect to NRAS to KD value with respect to KRAS),[2]; KD ratio,B (a compound having 3 or more and less than 10 is denoted as B)
CCO[C@@H]1C[C@H]2C(=O)NC3(CCC3)C(=O)N(C)[C@@H](C3CCCC3)C(=O)N(C)[C@H](C(=O)N3CCOCC3)CC(=O)N(C)[C@@H](CC(C)C)C(=O)N[C@@H]([C@@H](C)CC)C(=O)N(C)CC(=O)N(C)[C@H]3CCCCCN(C3=O)[C@@H](Cc3ccc(F)c(Cl)c3)C(=O)N(C)CC(=O)N[C@@H](CCc3cc(F)c(C(F)(F)F)c(F)c3)C(=O)N2C1 [PP0919],HRAS/KRAS (ratio of KD value with respect to HRAS to KD value with respect to KRAS),[1]; KD ratio,B (a compound having 3 or more and less than 10 is denoted as B)
same,NRAS/KRAS (ratio of KD value with respect to NRAS to KD value with respect to KRAS),[2]; KD ratio,B (a compound having 3 or more and less than 10 is denoted as B)
CCOC[C@H]1C(=O)N[C@@H]([C@@H](C)CC)C(=O)N(C)CC(=O)N(C)[C@H]2C/C=C\CCN(C2=O)[C@@H](Cc2ccc(C(F)(F)F)cc2)C(=O)N(C)CC(=O)N[C@@H](CCc2ccc(C(F)(F)F)c(OC)c2)C(=O)N2C[C@@H](C)C[C@H]2C(=O)NC2(CCC2)C(=O)N(C)[C@@H](C2CCCC2)C(=O)N(C)[C@H](C(=O)N(C)CC)CC(=O)N1C [PP2026],HRAS/KRAS (ratio of KD value for HRAS to KD value for KRAS),[1]; KD ratio,A (a compound having 10 or more and less than 20 is denoted as A)
same,NRAS/KRAS (ratio of KD value for NRAS to KD value for KRAS),[2]; KD ratio,A (a compound having 10 or more and less than 20 is denoted as A)
